According to patent publication US9315491B2 (DEVELOPMENT CENTER FOR BIOTECHNOLOGY, priority 2009, dated 2016):

Biological target: recombinant mTOR (Homo sapiens (Human), UniProt P42345)
Assay: mTOR kinase assay (33P incorporation into 4EBP1)
Type: biochemical
Conditions: compound at 10 μM, 10 μM ATP
Protocol: The activity of the compound against mTOR was examined by measuring the incorporation of ^33P from [γ-^33P]-ATP into 4EBP1. His-tagged, recombinant human 4EBP1 was expressed in E. coli, purified by nickel-nitrilotriacetic acid (Ni-NTA) resins, and stored at −80° C. Phosphorylation of 4EBP1 by mTOR was assayed in the presence or absence of the compound and performed in a final volume of 25 μl reaction buffer containing 300 ng 4EBP1, 50 ng recombinant mTOR (Invitrogen), 50 mM HEPES (pH 7.5), 1 mM EGTA, 0.01% Polysorbate 20, 10 mM MnCl2, 2.5 mM DTT, 10 μM ATP, and 0.5 μCi [γ-33P]-ATP (PerkinElmir) for 30 min at 30° C. The reactions were terminated by adding 3% phosphoric acid. The ^33P labeled 4EBP1 was transferred onto UniFilter-96 GF/B plate (PerkinElmer) and quantified by Top Count Microplate Scintillation Counter (PerkinElmer). For primary screening of kinase activity inhibition, each test compound was evaluated at […] in duplicate. […] The IC50 values of the compounds were determined after carrying out assays at eight serially diluted concentrations of each compound in duplicate. The results were analyzed using linear regression software (GraphPad Prism 5; GraphPad Software Inc.).
IC50 value is defined as the concentration of the test compound which achieves a half-maximal inhibition of the kinase activity.

Chain of recombinant mTOR (P42345 1360-2549): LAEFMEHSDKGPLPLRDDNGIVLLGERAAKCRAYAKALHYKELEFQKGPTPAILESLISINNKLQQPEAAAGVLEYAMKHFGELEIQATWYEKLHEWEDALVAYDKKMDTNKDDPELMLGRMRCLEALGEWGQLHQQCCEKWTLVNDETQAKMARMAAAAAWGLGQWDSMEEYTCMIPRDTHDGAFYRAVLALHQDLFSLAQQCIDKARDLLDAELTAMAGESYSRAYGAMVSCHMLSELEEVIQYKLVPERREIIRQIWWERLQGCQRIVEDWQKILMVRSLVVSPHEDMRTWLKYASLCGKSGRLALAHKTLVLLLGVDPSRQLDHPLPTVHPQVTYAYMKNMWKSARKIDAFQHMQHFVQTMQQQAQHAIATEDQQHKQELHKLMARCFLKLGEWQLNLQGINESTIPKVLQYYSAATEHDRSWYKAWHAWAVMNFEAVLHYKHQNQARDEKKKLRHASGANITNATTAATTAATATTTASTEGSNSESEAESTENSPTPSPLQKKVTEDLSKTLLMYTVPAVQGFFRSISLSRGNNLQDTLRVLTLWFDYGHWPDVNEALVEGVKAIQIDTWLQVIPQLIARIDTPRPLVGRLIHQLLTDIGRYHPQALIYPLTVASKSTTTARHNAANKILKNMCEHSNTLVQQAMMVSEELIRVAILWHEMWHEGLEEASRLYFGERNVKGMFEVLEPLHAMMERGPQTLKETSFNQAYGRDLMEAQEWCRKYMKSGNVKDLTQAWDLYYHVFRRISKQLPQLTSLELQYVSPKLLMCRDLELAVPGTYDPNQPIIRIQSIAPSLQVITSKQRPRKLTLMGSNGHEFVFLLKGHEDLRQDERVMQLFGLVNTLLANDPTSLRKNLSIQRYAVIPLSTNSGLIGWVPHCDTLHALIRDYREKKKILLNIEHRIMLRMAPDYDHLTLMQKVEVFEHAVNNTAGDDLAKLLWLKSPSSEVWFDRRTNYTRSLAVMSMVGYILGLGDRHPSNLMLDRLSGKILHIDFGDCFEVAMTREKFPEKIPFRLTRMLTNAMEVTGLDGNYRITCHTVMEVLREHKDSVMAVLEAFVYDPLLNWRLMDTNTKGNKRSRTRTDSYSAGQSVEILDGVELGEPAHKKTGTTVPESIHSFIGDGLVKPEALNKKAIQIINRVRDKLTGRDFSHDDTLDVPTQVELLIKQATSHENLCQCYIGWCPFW

inhibition at 10 µM [%] | SMILES
92 | CCOC(=O)c1nc(-c2ccc(Nc3nc4ccccc4[nH]3)cc2)nc(N2CCOCC2)c1OCC [MTR-0243, 2-[4-(1H-Benzoimidazol-2-ylamino)-phenyl]-5-ethoxy-6-morpholin-4-yl-pyrimidine-4-carboxylic acid ethyl ester]
94 | CCOc1c(C(=O)O)nc(-c2ccc(NC(=O)Nc3cccnc3)cc2)nc1N1CCOCC1 [MTR-0245, 5-Ethoxy-6-morpholin-4-yl-2-[4-(3-pyridin-3-yl-ureido)-phenyl]-pyrimidine-4-carboxylic acid]
82 | CCOC(=O)c1nc(-c2ccc(NC(=O)Nc3cccc(NC(=O)C(F)(F)F)c3)cc2)nc(N2CCOCC2)c1OCC [MTR-0252, 5-Ethoxy-6-morpholin-4-yl-2-(4-{3-[3-(2,2,2-trifluoro-acetylamino)-phenyl]-ureido}-phenyl)-pyrimidine-4-carboxylic acid ethyl ester]
90 | CSc1c(Cl)nc(-c2ccc(NC(=O)Nc3ccc4c(c3)OCO4)cc2)nc1N1CCOCC1 [MTR-0256, 1-Benzo[1,3]dioxol-5-yl-3-[4-(4-chloro-5-methylsulfanyl-6-morpholin-4-yl-pyrimidin-2-yl)-phenyl]-urea]
86 | CCOC(=O)c1ccc(NC(=O)Nc2ccc(-c3ncc(SC)c(N4CCOCC4)n3)cc2)cc1 [MTR-0264, 4-{3-[4-(5-Methylsulfanyl-4-morpholin-4-yl-pyrimidin-2-yl)-phenyl]-ureido}-benzoic acid ethyl ester]
97 | CCOC(=O)c1nc(-c2ccc(NC(=O)Nc3ccc(N4CCN(C)CC4)nc3)cc2)nc(N2CCOCC2)c1OCC [MTR-0275, 5-Ethoxy-2-(4-{3-[6-(4-methyl-piperazin-1-yl)-pyridin-3-yl]-ureido}-phenyl)-6-morpholin-4-yl-pyrimidine-4-carboxylic acid ethyl ester]
82 | CCOC(=O)c1nc(-c2ccc(NC(=O)Nc3ccc(N4CCOCC4)nc3)cc2)nc(N2CCOCC2)c1OCC [MTR-0276, 5-Ethoxy-6-morpholin-4-yl-2-{4-[3-(6-morpholin-4-yl-pyridin-3-yl)-ureido]-phenyl}-pyrimidine-4-carboxylic acid ethyl ester]
93 | CSc1cnc(-c2ccc(NC(N)=O)cc2)nc1N1CCOCC1 [MTR-0286, [4-(5-Methylsulfanyl-4-morpholin-4-yl-pyrimidin-2-yl)-phenyl]-urea]
91 | CSc1cnc(-c2ccc(Nc3nc4ccccc4[nH]3)cc2)nc1N1CCOCC1 [MTR-0289, (1H-Benzoimidazol-2-yl)-[4-(5-methylsulfanyl-4-morpholin-4-yl-pyrimidin-2-yl)-phenyl]-amine]
89 | CSc1c(Cl)nc(-c2ccc(NC(=O)Nc3ccc(Br)nc3)cc2)nc1N1CCOCC1 [MTR-0291, 1-(6-Bromo-pyridin-3-yl)-3-[4-(4-chloro-5-methylsulfanyl-6-morpholin-4-yl-pyrimidin-2-yl)-phenyl]-urea]
83 | CSc1c(Cl)nc(-c2ccc(NC(=S)Nc3ccc(C(=O)O)cc3)cc2)nc1N1CCOCC1 [MTR-0293, 4-{3-[4-(4-Chloro-5-methylsulfanyl-6-morpholin-4-yl-pyrimidin-2-yl)-phenyl]-thioureido}-benzoic acid]
83 | CCOC(=O)c1nc(-c2ccc(NC(=O)Nc3cccc4[nH]ncc34)cc2)nc(N2CCOCC2)c1OCC [MTR-0297, 5-Ethoxy-2-{4-[3-(1H-indazol-4-yl)-ureido]-phenyl}-6-morpholin-4-yl-pyrimidine-4-carboxylic acid ethyl ester]
90 | CSc1c(Cl)nc(-c2ccc(NC(=S)Nc3ccc(N4CCOCC4=O)cc3)cc2)nc1N1CCOCC1 [MTR-0304, 1-[4-(4-Chloro-5-methylsulfanyl-6-morpholin-4-yl-pyrimidin-2-yl)-phenyl]-3-[4-(3-oxo-morpholin-4-yl)-phenyl]-thiourea]
82 | CSc1c(Cl)nc(-c2ccc(Nc3nc4ccccc4[nH]3)cc2)nc1N1CCOCC1 [MTR-0305, (1H-Benzoimidazol-2-yl)-[4-(4-chloro-5-methylsulfanyl-6-morpholin-4-yl-pyrimidin-2-yl)-phenyl]-amine]
90 | CSc1c(Cl)nc(-c2ccc(NC(=O)NC(C)C)cc2)nc1N1CCOCC1 [MTR-0306, 1-[4-(4-Chloro-5-methylsulfanyl-6-morpholin-4-yl-pyrimidin-2-yl)-phenyl]-3-isopropyl-urea]
82 | CSc1c(Cl)nc(-c2ccc(NC(=O)O)cc2)nc1N1CCOCC1 [MTR-0307, [4-(4-Chloro-5-methylsulfanyl-6-morpholin-4-yl-pyrimidin-2-yl)-phenyl]-carbamic acid]

inhibition at 10 µM [%] | SMILES
86 | COc1cnc(-c2ccc(Nc3nc4ccccc4[nH]3)cc2)nc1N1CCOCC1 [MTR-0310, (1H-Benzoimidazol-2-yl)-[4-(5-methoxy-4-morpholin-4-yl-pyrimidin-2-yl)-phenyl]-amine]
94 | COc1cnc(-c2ccc(NC(=O)Nc3ccc(OCCN(C)C)cc3)cc2)nc1N1CCOCC1 [MTR-0312, 1-[4-(2-Dimethylamino-ethoxy)-phenyl]-3-[4-(5-methoxy-4-morpholin-4-yl-pyrimidin-2-yl)-phenyl]-urea]
93 | CSc1cnc(-c2ccc(NC(=O)Nc3ccc4c(c3)OCO4)cc2)nc1N1CCOCC1 [MTR-0317, 1-Benzo[1,3]dioxol-5-yl-3-[4-(5-methylsulfanyl-4-morpholin-4-yl-pyrimidin-2-yl)-phenyl]-urea]
91 | CSc1cnc(-c2ccc(NC(=O)Nc3ccc(N4CCN(C)CC4)cn3)cc2)nc1N1CCOCC1 [MTR-0318, 1-[5-(4-Methyl-piperazin-1-yl)-pyridin-2-yl]-3-[4-(5-methylsulfanyl-4-morpholin-4-yl-pyrimidin-2-yl)-phenyl]-urea]
84 | CSc1cnc(-c2ccc(NC(=S)Nc3ccc(N4CCOCC4=O)cc3)cc2)nc1N1CCOCC1 [MTR-0319, 1-[4-(5-Methylsulfanyl-4-morpholin-4-yl-pyrimidin-2-yl)-phenyl]-3-[4-(3-oxo-morpholin-4-yl)-phenyl]-thiourea]
81 | CCOc1cnc(-c2ccc(NC(=O)Nc3ccc(N4CCSCC4)cc3)cc2)nc1N1CCOCC1 [MTR-0324, 1-[4-(5-Ethoxy-4-morpholin-4-yl-pyrimidin-2-yl)-phenyl]-3-(4-thiomorpholin-4-yl-phenyl)-urea]
85 | CSc1c(Cl)nc(-c2ccc(NC(=O)Nc3ccc(N4CCOCC4)cn3)cc2)nc1N1CCOCC1 [MTR-0328, 1-[4-(4-Chloro-5-methylsulfanyl-6-morpholin-4-yl-pyrimidin-2-yl)-phenyl]-3-(5-morpholin-4-yl-pyridin-2-yl)-urea]
97 | CSc1c(Cl)nc(-c2ccc(NC(=O)Nc3ccc(N)cc3)cc2)nc1N1CCOCC1 [MTR-0329, 1-(4-Amino-phenyl)-3-[4-(4-chloro-5-methylsulfanyl-6-morpholin-4-yl-pyrimidin-2-yl)-phenyl]-urea]
93 | COc1cnc(-c2ccc(NC(=O)Nc3ccc(N4CCN(C)CC4)cn3)cc2)nc1N1CCOCC1 [MTR-0334, 1-[4-(5-Methoxy-4-morpholin-4-yl-pyrimidin-2-yl)-phenyl]-3-[5-(4-methyl-piperazin-1-yl)-pyridin-2-yl]-urea]
89 | COc1cnc(-c2ccc(NC(=S)Nc3ccc(N4CCOCC4=O)cc3)cc2)nc1N1CCOCC1 [MTR-0335, 1-[4-(5-Methoxy-4-morpholin-4-yl-pyrimidin-2-yl)-phenyl]-3-[4-(3-oxo-morpholin-4-yl)-phenyl]-thiourea]
89 | COc1cnc(-c2ccc(NC(N)=O)cc2)nc1N1CCOCC1 [MTR-0336, [4-(5-Methoxy-4-morpholin-4-yl-pyrimidin-2-yl)-phenyl]-urea]
94 | COc1cnc(-c2ccc(NC(=O)Nc3ccc(N4CCN(C)CC4)nc3)cc2)nc1N1CCOCC1 [MTR-0338, 1-[4-(5-Methoxy-4-morpholin-4-yl-pyrimidin-2-yl)-phenyl]-3-[6-(4-methyl-piperazin-1-yl)-pyridin-3-yl]-urea]
83 | CSc1cnc(-c2ccc(NC(=O)NC(C)C)cc2)nc1N1CCOCC1 [MTR-0341, 1-Isopropyl-3-[4-(5-methylsulfanyl-4-morpholin-4-yl-pyrimidin-2-yl)-phenyl]-urea]
92 | CSc1cnc(-c2ccc(NC(=O)Nc3ccc(OCCN(C)C)cc3)cc2)nc1N1CCOCC1 [MTR-0343, 1-[4-(2-Dimethylamino-ethoxy)-phenyl]-3-[4-(5-methylsulfanyl-4-morpholin-4-yl-pyrimidin-2-yl)-phenyl]-urea]
92 | CCOC(=O)c1nc(-c2ccc(NC(=O)Nc3ccc(C(N)=O)cc3)c(F)c2)nc(N2CCOCC2)c1OCC [MTR-0344, 2-{4-[3-(4-Carbamoyl-phenyl)-ureido]-3-fluoro-phenyl}-5-ethoxy-6-morpholin-4-yl-pyrimidine-4-carboxylic acid ethyl ester]
95 | CCOC(=O)c1nc(-c2ccc(NC(=O)Nc3ccc(C(N)=O)cc3)cc2F)nc(N2CCOCC2)c1OCC [MTR-0345, 2-{4-[3-(4-Carbamoyl-phenyl)-ureido]-2-fluoro-phenyl}-5-ethoxy-6-morpholin-4-yl-pyrimidine-4-carboxylic acid ethyl ester]
